Several values for one entry are separate records, joined by “and”; a condition that tells them apart may be missing. Identical values can stand only once.
Columns and labels:
Bcl-2 = test: qRT-PCR gene expression, Bcl-2; format: cell-based, human; details: MCF-7, 7.653 μM, 24 h
Procedure: Untreated cells served as negative controls. RNA concentration and purity were verified spectrophotometrically prior to cDNA synthesis. Complementary DNA (cDNA) was synthesized from purified RNA using the RT^2 First Strand Kit (Qiagen, Valencia, CA, USA) following the supplied protocol. Quantitative real-time PCR (qRT-PCR) was performed on a Corbett Rotor-Gene 6000 system (Qiagen, USA) using the RT^2 SYBR® Green ROX™ FAST Master Mix (Qiagen). Each 25 μL reaction contained 12.5 μL of master mix, 1 μL of gene-specific primers (RT^2 qPCR Primer Assays, Qiagen), 1 μL of cDNA template, and 10.5 μL of RNase-free water. Gene-specific primers were selected using the PrimerBank database for BAX, BCL2, and TP53, along with GAPDH as the endogenous control (Table S3). Thermal cycling conditions were set as follows: initial enzyme activation at 95 °C for 10 minutes, followed by 40 cycles of denaturation at 95 °C for 15 seconds, and annealing at 60 °C for 30 seconds. Amplification specificity was confirmed by melting curve analysis. Gene expression levels were normalized to GAPDH mRNA as the internal reference, and relative quantification was performed using the ΔΔCt method. […] Statistical analysis was performed using GraphPad Prism software, with p < 0.05 considered statistically significant.[79]

COX-1 = target: T1, COX-1 (Ovis aries, UniProt P05979); test: COX-1 inhibitor screening (fluorometric); format: biochemical; details: read-out: IC50 toward COX-1
T1 construct: purchased BioVision K548-100
T1 sequence (P05979 25-600): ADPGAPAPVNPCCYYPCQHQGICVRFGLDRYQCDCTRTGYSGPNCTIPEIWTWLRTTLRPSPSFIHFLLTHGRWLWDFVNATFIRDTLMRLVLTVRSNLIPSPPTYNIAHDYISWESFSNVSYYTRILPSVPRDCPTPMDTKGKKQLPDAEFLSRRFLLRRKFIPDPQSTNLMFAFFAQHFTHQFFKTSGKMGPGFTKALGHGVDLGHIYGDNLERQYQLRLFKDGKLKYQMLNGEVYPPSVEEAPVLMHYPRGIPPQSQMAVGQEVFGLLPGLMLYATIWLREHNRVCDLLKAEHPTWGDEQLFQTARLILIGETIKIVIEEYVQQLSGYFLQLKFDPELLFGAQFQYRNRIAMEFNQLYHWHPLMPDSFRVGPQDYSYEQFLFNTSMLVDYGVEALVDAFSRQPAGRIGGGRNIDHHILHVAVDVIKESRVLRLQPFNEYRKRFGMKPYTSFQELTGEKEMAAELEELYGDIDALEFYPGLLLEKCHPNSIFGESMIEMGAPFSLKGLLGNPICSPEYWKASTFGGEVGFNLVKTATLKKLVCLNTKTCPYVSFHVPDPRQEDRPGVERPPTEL
Procedure: COX-1 and COX-2 enzymes were reconstituted in sterile water (110 μL) and kept on ice until use. Arachidonic acid was activated by mixing 5 μL with 5 μL of NaOH, followed by a 10-fold dilution with water and vortexing. A reaction mixture (80 μL per well) was prepared by combining 76 μL of assay buffer, 1 μL of COX probe, 2 μL of 200-fold diluted COX cofactor, and 1 μL of COX-1 or COX-2 enzyme. This mix was added to each well, followed by 10 μL of the prepared arachidonic acid/NaOH solution to initiate the reaction. Fluorescence was recorded at 25 °C using a microplate reader. The percent inhibition was determined by comparing the fluorescence increase in treated wells relative to the enzyme control. IC50 values were calculated from the concentration–response curves using GraphPad Prism.

MCF-7 cells [1] = test: Annexin V-FITC/PI apoptosis assay; format: cell-based, human; details: MCF-7, IC50 concentration, 24 h
Procedure: Apoptotic cell death was quantified using annexin V-FITC and propidium iodide (PI) staining, in accordance with the manufacturer's instructions (BioVision, USA; Cat No. K101-25), with minor protocol adjustments. MCF-7 cells were plated at a density of 2 × 10^5 cells per well in DMEM-containing supplements and incubated overnight at 37 °C in a humidified atmosphere with 5% CO2. […] After treatment, cells were harvested using 0.25% trypsin–EDTA, rinsed twice with ice-cold phosphate-buffered saline (PBS), and resuspended in 500 μL of annexin V binding buffer. To each sample, 5 μL of annexin V-FITC and 5 μL of propidium iodide (PI) were then added for staining. The staining mixture was incubated in the dark for 15 minutes at room temperature. Samples were analyzed on a BD FACSCalibur™ flow cytometer (BD Biosciences, USA). Fluorescence was detected using the FL1 channel (530 nm) for annexin V-FITC and the FL2 channel (585 nm) for PI. Quadrant gating was used to distinguish between viable cells (annexin V^−/PI^−), early apoptotic cells (annexin V^+/PI^−), late apoptotic cells (annexin V^+/PI^+), and necrotic cells (annexin V^−/PI^+).

[2] = Serum liver and kidney function markers (ALT, AST, creatinine, urea)
Procedure: Blood samples were collected under light ether anesthesia via the retro-orbital venous plexus and centrifuged at 3000 rpm for 10 minutes. The resulting serum was separated and stored at −20 °C for biochemical analysis.
Serum alanine aminotransferase (ALT) and aspartate aminotransferase (AST) levels were measured as indicators of liver function using commercially available assay kits (BioVenic, NY, USA, (AST) Cat. No.: IVEK3681, (ALT) Cat. No.: IVEK3446), in accordance with the manufacturer's instructions. In the ALT assay, the enzyme catalyzes the conversion of alanine to pyruvate, which is then reduced to lactate by lactate dehydrogenase, resulting in the oxidation of NADH to NAD^+. This reaction causes a decrease in absorbance at 340 nm, which is proportional to ALT activity. Similarly, the AST assay is based on the transamination of aspartate to oxaloacetate, which then reacts with NADH in the presence of malate dehydrogenase, leading to a decrease in NADH absorbance at 340 nm. For each assay, 10 μL of serum was added to the respective substrate buffer and incubated at 37 °C for 30 minutes. The change in absorbance was recorded using a microplate reader at 340 nm. Enzymatic activities were calculated and expressed in units per liter (U L^−1). All measurements were performed in triplicate, and results are presented as mean ± SD.[98,99]
Serum creatinine and urea levels were assessed as indicators of renal function using colorimetric assay kits from BioAssay Systems (DICT-500, USA), according to the manufacturers' protocols. Creatinine concentration was determined based on a colorimetric enzymatic reaction. In this assay, creatinine is enzymatically converted to creatine and then to sarcosine, which is oxidized to produce hydrogen peroxide. The resulting hydrogen peroxide reacts with a chromogenic substrate in the presence of peroxidase to generate a colored product, the intensity of which is proportional to the creatinine concentration. Briefly, 10 μL of serum was mixed with 200 μL of working reagent, incubated at 25 °C for 5 minutes, and the absorbance was recorded at 510 nm using a microplate reader. Values were quantified against a standard curve and expressed in mg dL^−1. On the other hand, urea levels were measured based on an enzymatic reaction that produces a chromophore detectable at 340 nm. Specifically, 5 μL of serum was added to 200 μL of the assay reagent and incubated at 37 °C for 10 minutes. Absorbance was measured at 340 nm, and urea concentration was calculated using a standard curve and expressed as mg dL^−1.

MCF-7 cells [3] = test: Cell cycle analysis (PI flow cytometry); format: cell-based, human; details: MCF-7, 7.653 μM (IC50), 24 h
Procedure: Cell cycle progression was examined using a propidium iodide (PI)-based staining protocol, adapted from standard manufacturer instructions and previously described methods. MCF-7 cells were seeded at a density of 2 × 10^5 cells per well in DMEM and incubated overnight under standard conditions (37 °C, 5% CO2). […] A DMSO-treated group served as the vehicle control. After treatment, cells were collected, washed twice with cold phosphate-buffered saline (PBS), and centrifuged at 2000 rpm for 5 minutes. The pellets were fixed in pre-chilled 70% ethanol and stored at −20 °C for 2 hours. After fixation, cells were washed again with PBS, centrifuged, and resuspended in PI/RNase staining solution. Samples were incubated for 30 minutes at 37 °C in the dark to allow for RNA degradation and proper DNA staining. Flow cytometric analysis was conducted using a BD FACSCalibur™ system (BD Biosciences, USA). PI fluorescence was detected using a 488 nm excitation laser and collected through the FL2 channel (585 nm bandpass filter). Cell cycle phase distribution (G0/G1, S, and G2/M) was analyzed using dedicated software.

## CCOC(=O)/C(C#N)=C/c1ccc(Oc2c(C)c3cc(Br)c(O)c(Br)c3[nH]c2=O)cc1 [Compound 7, ethyl (E)-2-cyano-3-(4-((6,8-dibromo-7-hydroxy-4-methyl-2-oxo-1,2-dihydroquinolin-3-yl)oxy)phenyl)acrylate]
Bcl-2
  Bcl-2 expression relative to untreated control: 0.312 fold
COX-1
  IC50: 7.49 µM and 7.5 µM
MCF-7 cells [1]; control 0.12%
  late apoptotic cells: 8.41%
MCF-7 cells [1]; control 0.37%
  early apoptotic cells: 15.36%
MCF-7 cells [1]; control 2.22%
  necrotic cell population: 3.57%
[2]; EAC + compound 7 (10 mg kg^−1 i.p.), EAC control 1.7 ± 0.04
  serum creatinine: 0.6 ± 0.02 mg/dL
[2]; EAC + compound 7 (10 mg kg^−1 i.p.), EAC control 94 ± 1.78
  serum urea: 44.83 ± 0.7 mg/dL
[2]; EAC + compound 7 (10 mg kg^−1 i.p.), EAC control 140.66 ± 3.45
  serum ALT: 49.83 ± 1.16 U L^−1
[2]; EAC + compound 7 (10 mg kg^−1 i.p.), EAC control 168.33 ± 3.7
  serum AST: 57.5 ± 1.56 U L^−1
[2]; compound 7-control group, no EAC (10 mg kg^−1 i.p.), untreated 27.16 ± 0.94
  serum ALT: 22.83 ± 0.6 U L^−1
[2]; compound 7-control group, no EAC, untreated 0.5 ± 0.02
  serum creatinine: 0.5 ± 0.03 mg/dL
[2]; compound 7-control group, no EAC, untreated 24.16 ± 1.07
  serum urea: 21.83 ± 0.6 mg/dL
[2]; compound 7-control group, no EAC, untreated 41.66 ± 1.3
  serum AST: 37.83 ± 0.94 U L^−1
MCF-7 cells [3]; control 7.57%
  cells in G2/M phase: 36.21%
MCF-7 cells [3]; control 21.08%
  S-phase cells: 15.75%

— paper PMC12461739, “Multi-targeted azacoumarin–cyanocinnamate hybrids induce G2/M arrest and apoptosis via tubulin, and COX-2/VEGFR modulation: insights from in vitro mechanistic basis and in vivo validation” (RSC Medicinal Chemistry, 2025)
